# From patent US4638000A, “Condensed seven-membered ring compounds, their production and use” (Takeda Chemical Industries, Ltd., priority 1984, dated 1987)
# Counter-ions that a name gives are not always drawn.
# Tests used:
# [1] = biological target: T1, Angiotensin I Converting Enzyme (ACE) (Oryctolagus cuniculus, UniProt P12822); assay: Inhibition of Angiotensin I Converting Enzyme (ACE), HHL substrate, modified Cushman method; format: biochemical; conditions: compound concentration 0.1 μM; substrate hippuryl-L-histidyl-L-leucine; 37° C., 1 hour; read-out: ACE inhibitory activity (%)
# T1 sequence (P12822 34-1310): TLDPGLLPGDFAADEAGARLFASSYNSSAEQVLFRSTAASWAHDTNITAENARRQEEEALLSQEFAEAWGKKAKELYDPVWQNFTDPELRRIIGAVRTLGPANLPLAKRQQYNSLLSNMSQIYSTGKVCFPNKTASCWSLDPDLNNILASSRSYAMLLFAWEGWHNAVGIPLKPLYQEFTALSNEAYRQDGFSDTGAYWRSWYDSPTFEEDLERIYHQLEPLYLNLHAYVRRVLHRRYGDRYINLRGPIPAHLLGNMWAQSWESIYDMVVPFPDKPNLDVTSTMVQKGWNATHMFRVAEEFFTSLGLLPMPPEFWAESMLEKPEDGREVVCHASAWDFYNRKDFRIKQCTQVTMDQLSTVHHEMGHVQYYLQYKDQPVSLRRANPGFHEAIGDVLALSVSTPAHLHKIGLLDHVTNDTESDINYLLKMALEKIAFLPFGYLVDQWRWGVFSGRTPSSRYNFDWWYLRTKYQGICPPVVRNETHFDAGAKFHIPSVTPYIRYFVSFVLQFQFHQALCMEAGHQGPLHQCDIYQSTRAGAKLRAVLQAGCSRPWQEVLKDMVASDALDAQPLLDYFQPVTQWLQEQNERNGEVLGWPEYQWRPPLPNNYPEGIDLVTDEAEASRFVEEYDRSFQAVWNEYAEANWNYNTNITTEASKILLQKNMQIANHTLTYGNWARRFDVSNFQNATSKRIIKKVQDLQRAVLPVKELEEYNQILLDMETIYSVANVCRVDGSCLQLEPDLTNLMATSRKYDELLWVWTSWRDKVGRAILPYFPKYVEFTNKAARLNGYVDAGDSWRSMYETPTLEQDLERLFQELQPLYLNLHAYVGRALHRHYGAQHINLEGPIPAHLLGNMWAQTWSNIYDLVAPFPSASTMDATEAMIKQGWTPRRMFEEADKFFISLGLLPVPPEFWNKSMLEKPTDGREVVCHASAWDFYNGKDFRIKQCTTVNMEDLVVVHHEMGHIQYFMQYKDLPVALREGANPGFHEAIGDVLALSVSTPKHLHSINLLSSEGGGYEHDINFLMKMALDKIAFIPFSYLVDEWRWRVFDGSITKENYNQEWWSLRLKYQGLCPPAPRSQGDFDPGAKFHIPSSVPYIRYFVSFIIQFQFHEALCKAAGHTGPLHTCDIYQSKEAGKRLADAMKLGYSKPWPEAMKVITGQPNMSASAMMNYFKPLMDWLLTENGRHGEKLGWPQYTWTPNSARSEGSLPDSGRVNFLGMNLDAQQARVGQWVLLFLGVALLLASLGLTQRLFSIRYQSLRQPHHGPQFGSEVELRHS
# Description: The experiment was conducted in accordance with a modification of the method described by Cushman et al. (Biochemical Pharmacology, Vol. 20, pp. 1637, 1971). Thus, using hippuryl-L-histidyl-L-leucine (HHL) as the substrate, the ACE inhibitory activity was determined in terms of percent inhibition on the amount of hippuric acid produced by ACE when the compound of the present invention was added. A solution of the compound of the present invention in 0.02 to 5% dimethylsulfoxide-100 mM borate-HCl buffer solution (pH 8.3, containing 300 mM sodium chloride) was added to 100 μl of ACE (protein concentration, 20 mg/ml) and 100 μl of 1.25 mM HHL. In this experiment, a borate-HCl buffer solution containing dimethylsulfoxide at a concentration equal to that of the test solution was used as a control. After warming the solution at 37° C. for 1 hour, 150 μl of 1N hydrochloric acid was added to the solution to terminate the reaction. After 0.8 ml of ethyl acetate was added, the solution was centrifuged at 11,500 rpm for 2 minutes. A 0.5 ml aliquot was separated from the ethyl acetate layer and dried at a temperature of not more than 40° C. under nitrogen gas streams. The residue was mixed thoroughly with 4.5 ml of distilled water, and the mixture was subjected to colorimetry at a wavelength of 228 nm.
# [2] = system: hypertensive reaction by angiotensin I; assay: Effect against hypertensive activity of angiotensin I in rats; format: in vivo; conditions: 300 μg/kg i.v., rat, corrected by angiotensin II response
# Description: Male rats (Sprague-Awley) weighing 300 to 400 g which were fed under free access to drinking water and feed were used as experimental animals. The rats were anesthetized with intraperitoneal administration of pentobarbital sodium (50 mg/kg) on the day before the test day, and a polyethylene tube was inserted into each of the femoral artery for measurement of blood pressure and the femoral vein for injection of angiotensin I and II. And the tubes were fixed.
# On the test day, an average blood pressure in the control phase was measured by an electric hemodynamometer (MPU-0.5-290-0-III model, manufactured by NEC-Sanei, Japan) and recorded by a polygraph (NEC-Sanei, Tupe 365, or Nippon Kohden Type RM-45), and thereafter, angiotensin I and then angiotensin II were injected through the femoral vein at a dose of 300 ng/kg and 100 ng/kg, respectively, to measure the hypertensive activity. Then, 300 μg/kg of the compound of the present invention was administered intravenously as an isotonic saline solution, and 5, 10, 30, 60, 90 and 120 minutes after the administration, angiotensin I and II were injected repeatedly to trace hypertensive reactions. In calculating the percent inhibition to the hypertensive activity of angiotensin I, the percent inhibitory value was corrected based on the variation with time in the hypertensive reaction by angiotensin II.
# [3] = 5 min. after the administration
# [4] = 10 min. after the administration
# [5] = 30 min. after the administration
# [6] = 60 min. after the administration
# [7] = 90 min. after the administration
# [8] = 120 min. after the administration
inhibition at 0.1 µM [1],Structure (SMILES),"Inhibition against hypertensive reaction by angiotension I, % [2, 3]","Inhibition against hypertensive reaction by angiotension I, % [2, 4]","Inhibition against hypertensive reaction by angiotension I, % [2, 5]","Inhibition against hypertensive reaction by angiotension I, % [2, 6]","Inhibition against hypertensive reaction by angiotension I, % [2, 7]","Inhibition against hypertensive reaction by angiotension I, % [2, 8]"
92%,"O=C(O)CN1C(=O)[C@@H](N[C@@H](CCC2CCNCC2)C(=O)O)CSc2ccccc21 [Example 73, 3(R)-[1(S)-carboxy-3-(4-piperidyl)propyl]amino-4-oxo-2,3,4,5-tetrahydro-1,5-benzothiazepine-5-acetic acid]",,,,,,
92%,"O=C(O)CN1C(=O)[C@@H](N[C@@H](CCCC2CCNCC2)C(=O)O)CSc2ccccc21 [Example 91, 3(R)-[1(S)-carboxy-4-(4-piperidyl)butyl]amino-4-oxo-2,3,4,5-tetrahydro-1,5-benzothiazepine-5-acetic acid]",,,,,,
98%,"O=C(O)CN1C(=O)[C@@H](N[C@@H](CCCCCCC2CCNCC2)C(=O)O)CSc2ccccc21 [Example 100, 3(R)-[1(S)-carboxy-7-(4-piperidyl)heptyl]amino-4-oxo-2,3,4,5-tetrahydro-1,5-benzothiazepine-5-acetic acid]",,,,,,
98%,"O=C(O)CN1C(=O)[C@@H](N[C@@H](CCCCCC2CCNCC2)C(=O)O)CSc2ccccc21 [Example 98, 3(R)-[1(S)-carboxy-6-(4-piperidyl)hexyl]amino-4-oxo-2,3,4,5-tetrahydro-1,5-benzothiazepine-5-acetic acid]",100%,100%,100%,100%,95%,79%
98%,"O=C(O)CN1C(=O)[C@@H](N[C@@H](CCCCC2CCNCC2)C(=O)O)CSc2ccccc21 [Example 95, 3(R)-[1(S)-carboxy-5-(4-piperidyl)pentyl]amino-4-oxo-2,3,4,5-tetrahydro-1,5-benzothiazepine-5-acetic acid]",96%,94%,99%,89%,96%,91%

# Continued, compound first:
Structure (SMILES),inhibition at 0.1 µM [1],"Inhibition against hypertensive reaction by angiotension I, % [2, 3]","Inhibition against hypertensive reaction by angiotension I, % [2, 4]","Inhibition against hypertensive reaction by angiotension I, % [2, 5]","Inhibition against hypertensive reaction by angiotension I, % [2, 6]","Inhibition against hypertensive reaction by angiotension I, % [2, 7]","Inhibition against hypertensive reaction by angiotension I, % [2, 8]"
O=C(O)CN1C(=O)[C@@H](N[C@@H](CCC2CCSCC2)C(=O)O)CSc2ccccc21 [Example 75],89%,,,,,,
O=C(O)CN1C(=O)[C@@H](N[C@@H](CCC2CCOCC2)C(=O)O)CSc2ccccc21 [Example 74],94%,,,,,,
"O=C(O)CN1C(=O)[C@@H](N[C@@H](CCCCN2CCCCC2)C(=O)O)CSc2ccccc21 [Example 82, 3(R)-[1(S)-carboxy-5-piperidinopentyl]amino-4-oxo-2,3,4,5-tetrahydro-1,5-benzothiazepine-5-acetic acid]",92%,,,,,,
"CCOC(=O)C(CCCC1CCNCC1)NC1CSc2ccccc2N(CC(=O)O)C1=O [Example 90, 3(R)-[1(S)-ethoxycarbonyl-4-(4-piperidyl)butyl]-amino-4-oxo-2,3,4,5-tetrahydro-1,5-berzothiazepine-5-acetic acid.dihydrobromide]",,100%,100%,100%,90%,67%,62%
